Experimental data: BigSolDB 2.1

O=[N+]([O-])O.c1ccc2c(CC3=NCCN3)cccc2c1
solubility (mole fraction)
Conditions	278.15 K	283.15 K	288.15 K	293.15 K	298.15 K	303.15 K	308.15 K	313.15 K	318.15 K	323.15 K
in 2-methoxyethanol	0.0347	0.04	0.046	0.0515	0.0601	0.0662	0.0769	0.0883	0.101	0.115
in ethylene glycol	0.0168	0.0212	0.0257	0.03	0.0359	0.0428	0.0506	0.061	0.0704	0.0823
in isopropanol	0.000577	0.000763	0.00101	0.00132	0.00161	0.00206	0.00258	0.00327	0.00389	0.00489
in methanol	0.0104	0.013	0.0155	0.0193	0.0234	0.029	0.0368	0.0473	0.057	0.0705
